Here are results for 6 molecules from patent US20170248578A1, “ANTI-CANCER AGENT SENSITIVITY-DETERMINING MARKER” (KEIO UNIVERSITY, priority 2014, published 2017).

Where “and” joins values, the source holds several entries; their conditions need not be identical. Equal entries are not always repeated.

Holding throughout (format): cell-based, human
Data set [1] has as its system HCT116 into which siRNA had been introduced. The data set is described as follows: Sensitivity to oxaliplatin after introduction of siRNA, MTS assay. Conditions: for sensitivity to oxaliplatin compared to the case where the control siRNA had been introduced: HCT116, 150 pmol siRNA per well. As for the experimental part:
(§1) The aforementioned nine human colorectal cancer cell lines were respectively inoculated onto a 96 well plate at a density of 1,500 cells/well, and after 24 hours, oxaliplatin was added thereto. The cell survival rate after 48 hours of drug exposure was evaluated by the MTS assay (CellTiter96™ AQueous One Solution Cell Proliferation Assay, Promega), and the IC50 values were determined from the absorbance values. Regarding the drug exposure conditions, eleven conditions such as Control (0 μM), 0.001 μM, 0.01 μM, 0.1 μM, 0.3 μM, 1 μM, 3 μM, 10 μM, 30 μM, 100 μM, and 1,000 μM were used. The evaluation of sensitivity was performed three times with cells of different passage numbers, by measuring three samples each for the respective cell lines, drug exposure time, and drug exposure conditions in a single time test. An analysis was carried out based on the survival rate calculated from the results of the MTS assay.
(§2) Among the nine kinds of colorectal cancer cell lines described in Test Example 1, Ls174T was used as an oxaliplatin-high-sensitivity cell line, HCT116 was used as a moderate-sensitivity cell line, and HT29 and DLD-1 were used as low-sensitivity cell lines.
(§3) Each of the human colorectal cancer cell lines was inoculated into a 6-well plate at a density of 1×10^5 cells/well, and after 24 hours, the medium was replaced with serum-free DMEM medium (Wako, 044-29765). A solution obtained by dissolving 150 pmol per well of each of the siRNAs indicated in Table 8 in 250 μL of Opti MEM (GIBCO, No. 319985) was mixed with a solution obtained by mixing 4.5 μL of Lipofectamin RNAiMAX Reagent (Invitrogen, No. 13778-150) and 250 μL of Opti MEM (GIBCO, No. 319985). The resultant mixture was incubated for 10 to 20 minutes. After incubation, 500 μL each of the mixture was added to each well of the 6-well plate on which the human colorectal cancer cell lines were cultured, and the medium in each well was replaced with a serum-added DMEM medium (Wako, 044-29765) 4 to 6 hours after the addition. The cells were collected 24 hours after the addition of siRNA.
(§4) Regarding the control siRNA, siRNA of No. 4390843 of Life Technologies, Inc. was used.
(§5) Measurement of the sensitivity to oxaliplatin (measurement of IC50 values) of the human colorectal cancer cell lines into which siRNA had been introduced, was performed by the method described in Test Example 1(1)(c).
(In general: Formazan colour is commonly taken as a measure of viable cells.)

The subject of data set [2] is Ls174T into which siRNA had been introduced. Described as above. Conditions: for sensitivity to oxaliplatin compared to the case where the control siRNA had been introduced: 150 pmol siRNA per well. The method, then:
as §1, §2, §3, §4, §5

Data set [3] has as its system HT29 into which siRNA had been introduced. The description is as above. The conditions noted are these: for sensitivity to oxaliplatin compared to the case where the control siRNA had been introduced: HT29, 150 pmol siRNA per well. As for the experimental part:
as §1, §2, §3, §4, §5

In data set [4] the test system is DLD-1 into which siRNA had been introduced. The description is as above. The method, then: as §1, §2, §3, §4, §5
The test system of data set [5] is Lovo. The data set is described as follows: Sensitivity to oxaliplatin, MTS assay. Conditions: 48 hours of drug exposure, cell survival rate by MTS assay. The method, then:
(§6) Nine human colorectal cancer cell lines (SW480, Ls174T, Lovo, SW620, HCT116, HCT15, HT29, DLD-1, and WiDr) were obtained from the following sources (Table 1).
(§7) Culture was carried out under the conditions of 0100 mm/Tissue Culture Dish (IWAKI), culture medium (D-MEM, 2 mM Glutamine, 10% Fetal Bovine Serum), 37° C., and 5% CO2.
as §1

In data set [6] the test system is HT29. The data set is described as follows: Sensitivity to oxaliplatin, MTS assay. The conditions noted are these: HT29, 48 hours of drug exposure, cell survival rate by MTS assay. As for the experimental part:
as §6, §7, §1

Data set [7] has as its system WiDr. Description: Sensitivity to oxaliplatin, MTS assay. The conditions noted are these: 48 hours of drug exposure, cell survival rate by MTS assay. The method, then:
as §6, §7, §1

Data set [8] deals with HCT116. The data set is described as follows: Sensitivity to oxaliplatin, MTS assay. Conditions: HCT116, 48 hours of drug exposure, cell survival rate by MTS assay. As for the experimental part:
as §6, §7, §1

In data set [9] the test system is DLD-1. Description: Sensitivity to oxaliplatin, MTS assay. Conditions: DLD-1, 48 hours of drug exposure, cell survival rate by MTS assay. As for the experimental part: as §6, §7, §1
Data set [10] has as its system Ls174T. Description: Sensitivity to oxaliplatin, MTS assay. The conditions noted are these: 48 hours of drug exposure, cell survival rate by MTS assay. As for the experimental part:
as §6, §7, §1

The test system of data set [11] is HCT15. The data set is described as follows: Sensitivity to oxaliplatin, MTS assay. The conditions noted are these: HCT15, 48 hours of drug exposure, cell survival rate by MTS assay. As for the experimental part: as §6, §7, §1
For data set [12], the system named is SW620. The data set is described as follows: Sensitivity to oxaliplatin, MTS assay. Conditions: SW620, 48 hours of drug exposure, cell survival rate by MTS assay. The method, then: as §6, §7, §1
The test system of data set [13] is SW480. Description: Sensitivity to oxaliplatin, MTS assay. Conditions: SW480, 48 hours of drug exposure, cell survival rate by MTS assay. As for the experimental part:
as §6, §7, §1

As to “TALDO siRNA: siRNA UGCUAUUGAUAAACUUUUUtt (life technologies, s13776), SEQ ID NO: 3 (UGCUAUUGAUAAACUUUUUTT; chemistry not given here)”, the “sensitivity to oxaliplatin compared to the case where the control siRNA had been introduced” value in data set [1], in [2] and in data set [3] was “enhanced” throughout.
As to “PHB siRNA: siRNA CGUGGGUACAGAAACCAAUtt (life technologies, s10424), SEQ ID NO: 1 (CGUGGGUACAGAAACCAAUTT; chemistry not given here)”, the “sensitivity to oxaliplatin compared to the case where the control siRNA had been introduced” value in data set [4] (DLD-1, 150 pmol siRNA per well) is given as “decreased”; in data set [1], “decreased”; in [2], “decreased”; in data set [3] it was “decreased”.
As to “IPYR siRNA: siRNA GGAAUCAGUUGCAUGAAUAtt (life technologies, s10878), SEQ ID NO: 5 (GGAAUCAGUUGCAUGAAUATT; chemistry not given here)”, in data set [2], the “sensitivity to oxaliplatin compared to the case where the control siRNA had been introduced” value was “enhanced”.
For “C1QBP siRNA: siRNA GGCCUUAUAUGACCACCUAtt (life technologies, s2139), SEQ ID NO: 4 (GGCCUUAUAUGACCACCUATT; chemistry not given here)”, in data set [1], the “sensitivity to oxaliplatin compared to the case where the control siRNA had been introduced” value is “decreased”.
Usually IC50 stands for the concentration that gives 50% inhibition. Lower therefore signals higher potency. Regarding `O=C1[O][Pt]2([NH][C@@H]3CCCC[C@H]3[NH]2)[O]C1=O` [oxaliplatin, (SP-4-2)-[(1R,2R)-cyclohexane-1,2-diamine-κN, κN′] [ethanedio ato(2-)-κO^1, κO^2]platinum], the half-maximal inhibitory concentration (IC50) in data set [4] (DLD-1, Control siRNA introduced) is 14700 nM; in [4] (DLD-1, PHB siRNA introduced), 52300 nM; in data set [1] (HCT116, ANXA5 siRNA introduced), 760 nM; in data set [1] (HCT116, C1QBP siRNA introduced), 2180 nM; in data set [1] (HCT116, Control siRNA introduced), 1720 nM and 1390 nM and 1530 nM and 1340 nM; in [1] (HCT116, PHB siRNA introduced) it was 21500 nM. The half-inhibitory concentration (IC50) in [1] (HCT116, TALDO siRNA introduced) is 730 nM; in data set [2] (Control siRNA introduced), 860 nM and 680 nM; in data set [2] (IPYR siRNA introduced), 390 nM; in [2] (PHB siRNA introduced), 11900 nM; in data set [2] (TALDO siRNA introduced), 430 nM; in data set [3] (HT29, ANXA5 siRNA introduced) it was 5350 nM. For the same molecule, the IC50 in [3] (HT29, Control siRNA introduced) stood at 16100 nM; in data set [3] (HT29, PHB siRNA introduced) it was 41900 nM; in data set [3] (HT29, TALDO siRNA introduced), 2770 nM; in data set [5], 790 ± 180 nM; in [6], 7990 ± 2660 nM; in data set [7], 17700 ± 8390 nM. The IC50 came to 1150 ± 340 nM in data set [8]; 13900 ± 6290 nM in data set [9]; 610 ± 110 nM in [10]; 1450 ± 440 nM in data set [11]; 1140 ± 740 nM in data set [12]; 430 ± 130 nM in data set [13].
On to “ANXA5 siRNA: siRNA GUACAUGACUAUAUCAGGAtt (life technologies, s1392), SEQ ID NO: 2 (GUACAUGACUAUAUCAGGATT; chemistry not given here)”, for which the “sensitivity to oxaliplatin compared to the case where the control siRNA had been introduced” value in [1] and in data set [3] was “enhanced” throughout.
